The source of these data is patent publication US20220373437A1, “SYSTEM FOR EVALUATING CHEMO-PREVENTIVE POTENTIAL OF PHC AND ITS PREPARED CHITOSAN NANOPARTICLES” (priority 2022, published 2022).

Common to all, as to type: in vivo, Wistar rats
The subject of experiment [1] is DEN induced hepatocellular carcinoma. The experiment in a line: Liver histopathology (H and E stained sections) in DEN + CCl4 induced HCC rats. The following applies: 16 weeks. As to the method:
(§1) In an embodiment, an injection 106 is used for inducing Hepatocellular Carcinoma (HCC), wherein for the induction of HCC, rats administered single intraperitoneal injection of DEN (200 mg/kg body weight) followed by weekly subcutaneous injections of carbon tetrachloride (3 ml/kg body weight) for 6 weeks, wherein the rats are divided into eight groups, from which group 1 is served as normal control, and group 2-8 are given single dose of DEN and repeated dose of CCl4 till the completion of the experimental duration of 16 weeks, wherein freshly prepared solution of DEN in normal saline is used for the induction of HCC in rats by administering 200 mg/kg, i.p., PHC (2:1:1) is dispersed in normal saline suspension to administer at doses of 900 mg/kg, p.o and 1935 mg/kg p.o. Soranib (Sorafenib 200 mg) tablets are powdered and dissolve in normal saline solution and the freshly prepared solution is used as standard drug.
(§2) In an embodiment, a collection unit 108 is used for collecting serum and tissue samples after anesthetizing overnight fasted rats using intraperitoneal administration of thiopentone sodium at a dose of 40 mg/kg, wherein the blood sample is collected by retro-orbital plexus followed by cardiac puncture.
In one embodiment, a micropipette 122 is coupled to the treatment unit 110 for pouring formalin solution for histopathological examination. […]

The test system is the same in experiment [2]. In words: Total bilirubin, total protein, albumin, globulin and A/G ratio in DEN + CCl4 induced HCC rats. The following applies: ANOVA followed by Dunnett's t-test vs HCC group. As to the method:
as §1, §2
In another embodiment, the treatment unit 110 comprises a centrifuge 116 for centrifugating the collected sample of blood at 3000 rpm for 10 minutes to separate the serum, which is kept at −20° C. until further analysis.
In another embodiment, the live markers are selected from a group comprising Alanine Aminotransaminase (ALT)/Serum Glutamate Pyruvate Transaminase (SGPT), Aspartate Aminotransaminase (AST)/Serum Glutamate Oxaloacetate Transaminase (SGOT), Alkaline Phosphatase (ALP), Lactate dehydrogenase (LDH), total protein, albumin, globulin and total bilirubin.
FIG. 6 illustrates effect on total bilirubin, total protein, albumin and globulin in control and experimental groups in accordance with an embodiment of the present disclosure. All values are expressed as mean±Standard deviation (SD) (n=6) except n=5 in Plant ‘c’ group. Statistical analysis is done using One way Analysis of Variance (ANOVA) followed by Dunnett's t-test using GraphPad Prism Version 8.0.1. Where, HCC is compared with NC group while the treatment groups (Plant ‘a’, Plant ‘b’, Plant ‘c’, PHC (2:1:1), CNP-EL and STD) are compared with HCC group. ^#P<0.0001 is very highly significant when compared with NC, ^aP<0.0001 is very highly significant, ^bP<0.001 is highly significant, ^cP<0.01 is very significant, ^dP<0.05 is significant and ns=not significant when compared with HCC group. Where NC is normal control group; HCC is hepatocellular carcinoma group; Plant ‘a’ group is Berberis aristata treated group; Plant ‘b’ group is Andrographis paniculata treated group; Plant ‘c’ group is Thevetia peruviana treated group; PHC (2:1:1) group is Polyherbal combination of 2:1:1 treated group; CNP-EL group is Chitosan nanoparticles of PHC (2:1:1) treated group and STD group is Standard Sorafenib treated group. Unit: Bilirubin: mg/dl, Total protein, Albumin and globulin: gm/dl.

For experiment [3] the test system is unchanged. In words: Lipid peroxidation (MDA) in liver tissue homogenates of DEN + CCl4 induced HCC rats. The following applies: vs HCC group. As to the method:
as §1
In one embodiment, a tissue homogenizer 120 is coupled to the treatment unit 110 for preparing ten percentage homogenates of liver tissue. […]
FIG. 7 illustrates effect on lipid peroxidation (LPO) in control and experimental groups in accordance with an embodiment of the present disclosure. All values are expressed as mean±Standard deviation (SD) (n=6) except n=5 in Plant ‘c’ group. […]
Malondialdehyde (MDA), an end product of LPO is assessed in the tumor tissues homogenates. […]

For experiment [4] the test system is unchanged. In words: Macroscopic hepatic nodule incidence in DEN + CCl4 induced HCC rats. The following applies: DEN 200 mg/kg i.p. + weekly CCl4 s.c., 16 weeks, HCC control group 6-7 nodules, normal control none. As to the method: as §1
In another embodiment, all the rats are allowed to consume commercial pellet diet during the course of the study, wherein eight groups of rat are differentiated into six groups consisting of eight rats and two groups consisting of twelve rats.
In one embodiment, a refrigerator 124 is coupled to the treatment unit 110 for storing the tissues at −20° C. and observing the presence of nodules using the UV spectrophotometer 114. […]

On to `CNC(=O)c1cc(Oc2ccc(NC(=O)Nc3ccc(Cl)c(C(F)(F)F)c3)cc2)ccn1` [STD, Sorafenib], for which, in experiment [1], the “histopathology of H and E stained section of liver (40×)” value is “hepatic tissue with cytoplasm, less necrosis of cell, altered hepatocytes and hepatocellular architecture”. Further, in experiment [2], the “A/G ratio, change compared to HCC group” value is recorded as “very highly significant (^aP<0.0001) increased”; the “level of albumin, change compared to HCC group” value is reported as “very highly significant (^aP<0.0001) increased”; the “level of globulin, change compared to HCC group” value is “very highly significant (^aP<0.0001) increased”; the “level of total bilirubin, change compared to HCC group” value is on record as “very highly significantly (^aP<0.0001) decreased”. Moreover, in experiment [2], the “level of total protein, change compared to HCC group” value is listed as “very highly significant (^aP<0.0001) increased”. In addition, the “levels of MDA (lipid peroxidation), change compared to HCC group” value in experiment [3] is recorded as “very highly significant (^aP<0.0001) decreased”. Also, in experiment [4], the “number of macroscopically visible hepatic nodules” value is on record as 0-1.
